From ChEMBL document CHEMBL5325502, “Discovery of 2,4-diphenyl-substituted thiazole derivatives as PRMT1 inhibitors and investigation of their anti-cervical cancer effects” (Bioorg Med Chem, 2023)
The source made the active and inactive calls. The calls are words filed in the database; no cut-off is given here.

Columns and labels:
[1] = biological target: T1, Protein arginine N-methyltransferase 1 (Homo sapiens, UniProt Q99873); assay: Displacement of [3H]SAM from PRMT1 (unknown origin) at 10 uM preincubated for 15 mins followed by [3H]SAM addition measured after 60 mins by radiometric/luminescence based assay relative to control; details: time 75.0 min
Target sequence in this assay (Q99873 whole entry, looked up): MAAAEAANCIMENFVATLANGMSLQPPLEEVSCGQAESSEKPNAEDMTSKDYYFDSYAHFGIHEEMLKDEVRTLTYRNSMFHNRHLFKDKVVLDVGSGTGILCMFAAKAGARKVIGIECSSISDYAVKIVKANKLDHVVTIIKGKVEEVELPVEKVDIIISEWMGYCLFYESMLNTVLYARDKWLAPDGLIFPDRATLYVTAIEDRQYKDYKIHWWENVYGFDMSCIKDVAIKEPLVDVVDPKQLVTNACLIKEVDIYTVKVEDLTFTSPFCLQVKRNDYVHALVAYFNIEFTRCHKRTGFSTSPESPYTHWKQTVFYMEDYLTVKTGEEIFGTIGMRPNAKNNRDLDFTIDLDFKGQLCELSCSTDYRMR

[2] = biological target: T1, Protein arginine N-methyltransferase 1; assay: Displacement of [3H]SAM from PRMT1 (unknown origin) preincubated for 15 mins followed by [3H]SAM addition measured after 60 mins by radiometric/luminescence based assay
Target sequence in this assay (Q99873 whole entry): as the sequence (Q99873 whole entry, looked up) above

[3] = biological target: Protein arginine N-methyltransferase 5 (Homo sapiens) (UniProt O14744); assay: Inhibition of PRMT5 (unknown origin) using SAM as substrate incubated for 60 mins by chemiluminescence based assay
A549 = assay: Antiproliferative activity against human A549 cells incubated for 48 hrs by CCK8 assay; format: functional, cell-based; details: A549, 48 h
MDA-MB-231 = assay: Antiproliferative activity against human MDA-MB-231 cells incubated for 48 hrs by CCK8 assay; format: functional, cell-based; details: MDA-MB-231, 48 h
HepG2 = assay: Antiproliferative activity against human HepG2 cells incubated for 48 hrs by CCK8 assay; format: functional, cell-based; details: HepG2, 48 h
HeLa [4] = assay: Antiproliferative activity against human HeLa cells incubated for 48 hrs by CCK8 assay; format: functional, cell-based
HeLa [5] = assay: Induction of early apoptosis in human HeLa cells assessed as nuclear edge fusion incubated for 24 hrs by hoechst staining based analysis; format: functional, cell-based; details: dose <= 32.0 µM
HeLa [6] = assay: Induction of early apoptosis in human HeLa cells assessed as nuclear fragmentation incubated for 24 hrs by hoechst staining based analysis; format: functional, cell-based; details: dose <= 32.0 µM
HeLa [7] = assay: Induction of early apoptosis in human HeLa cells assessed as dense nuclei incubated for 24 hrs by hoechst staining based analysis; format: functional, cell-based; details: dose <= 32.0 µM
HeLa [8] = assay: Induction of early apoptosis in human HeLa cells assessed as reduction in number of cells incubated for 24 hrs by hoechst staining based analysis; format: functional, cell-based; details: dose <= 32.0 µM
HeLa [9] = assay: Induction of apoptosis in human HeLa cells assessed as viable cells at 8 uM incubated for 24 hrs by flow cytometry (reference value: 66.3 %); format: functional; details: read-out: Activity
HeLa [10] = assay: Induction of apoptosis in human HeLa cells assessed as early apoptotic cells at 8 uM incubated for 24 hrs by flow cytometry (reference value: 28.2 %); format: functional
HeLa [11] = assay: Induction of apoptosis in human HeLa cells assessed as late apoptotic cells at 8 uM incubated for 24 hrs by flow cytometry (reference value: 4.37 %); format: functional
HeLa [12] = assay: Induction of apoptosis in human HeLa cells assessed as necrotic cells at 8 uM incubated for 24 hrs by flow cytometry (reference value: 1.10 %); format: functional
HeLa [13] = assay: Induction of apoptosis in human HeLa cells assessed as viable cells at 16 uM incubated for 24 hrs by flow cytometry (reference value: 66.3 %); format: functional; details: read-out: Activity
HeLa [14] = assay: Induction of apoptosis in human HeLa cells assessed as early apoptotic cells at 16 uM incubated for 24 hrs by flow cytometry (reference value: 28.2 %); format: functional
HeLa [15] = assay: Induction of apoptosis in human HeLa cells assessed as late apoptotic cells at 16 uM incubated for 24 hrs by flow cytometry (reference value: 4.37 %); format: functional
HeLa [16] = assay: Induction of apoptosis in human HeLa cells assessed as necrotic cells at 16 uM incubated for 24 hrs by flow cytometry (reference value: 1.10 %); format: functional
HeLa [17] = assay: Induction of apoptosis in human HeLa cells assessed as viable cells at 32 uM incubated for 24 hrs by flow cytometry (reference value: 66.3 %); format: functional; details: read-out: Activity
HeLa [18] = assay: Induction of apoptosis in human HeLa cells assessed as early apoptotic cells at 32 uM incubated for 24 hrs by flow cytometry (reference value: 28.2 %); format: functional
HeLa [19] = assay: Induction of apoptosis in human HeLa cells assessed as late apoptotic cells at 32 uM incubated for 24 hrs by flow cytometry (reference value: 4.37 %); format: functional
HeLa [20] = assay: Induction of apoptosis in human HeLa cells assessed as necrotic cells at 32 uM incubated for 24 hrs by flow cytometry (reference value: 1.10 %); format: functional
HeLa [21] = assay: Inhibition of cell migration in human HeLa cells incubated upto 48 hrs by scratch wound healing assay; format: functional, cell-based; details: dose 2-8 µM
HeLa [22] = assay: Inhibition of cell migration in human HeLa cells incubated at 24 hrs by crystal violet staining based transwell assay; format: functional; details: dose 2-8 µM
HeLa [23] = assay: Downregulation of ADMA expression in human HeLa cells incubated for 48 hrs by Western blot analysis; format: functional, cell-based; details: dose 2-8 µM
HeLa [24] = assay: Effect on SDMA expression in human HeLa cells at 2 to 8 uM incubated for 48 hrs by Western blot analysis; format: functional, cell-based; details: dose 2-8 µM
HeLa [25] = assay: Effect on PRMT1 expression in human HeLa cells at 2 to 8 uM incubated for 48 hrs by Western blot analysis; format: functional, cell-based; details: dose 2-8 µM
HeLa [26] = assay: Downregulation of DDAH expression in human HeLa cells at 2 to 8 uM incubated for 48 hrs by Western blot analysis; format: functional, cell-based; details: dose 2-8 µM
HeLa [27] = assay: Downregulation of N-Cadherin expression in human HeLa cells incubated for 48 hrs by Western blot analysis; format: functional, cell-based; details: dose 2-8 µM
HeLa [28] = assay: Downregulation of MMP2 expression in human HeLa cells incubated for 48 hrs by Western blot analysis; format: functional, cell-based; details: dose 2-8 µM
HeLa [29] = assay: Downregulation of pro-caspase 9 expression in human HeLa cells incubated for 48 hrs by Western blot analysis; format: functional, cell-based; details: dose 2-8 µM

Chain of Protein arginine N-methyltransferase 5 (Homo sapiens) (O14744 whole entry): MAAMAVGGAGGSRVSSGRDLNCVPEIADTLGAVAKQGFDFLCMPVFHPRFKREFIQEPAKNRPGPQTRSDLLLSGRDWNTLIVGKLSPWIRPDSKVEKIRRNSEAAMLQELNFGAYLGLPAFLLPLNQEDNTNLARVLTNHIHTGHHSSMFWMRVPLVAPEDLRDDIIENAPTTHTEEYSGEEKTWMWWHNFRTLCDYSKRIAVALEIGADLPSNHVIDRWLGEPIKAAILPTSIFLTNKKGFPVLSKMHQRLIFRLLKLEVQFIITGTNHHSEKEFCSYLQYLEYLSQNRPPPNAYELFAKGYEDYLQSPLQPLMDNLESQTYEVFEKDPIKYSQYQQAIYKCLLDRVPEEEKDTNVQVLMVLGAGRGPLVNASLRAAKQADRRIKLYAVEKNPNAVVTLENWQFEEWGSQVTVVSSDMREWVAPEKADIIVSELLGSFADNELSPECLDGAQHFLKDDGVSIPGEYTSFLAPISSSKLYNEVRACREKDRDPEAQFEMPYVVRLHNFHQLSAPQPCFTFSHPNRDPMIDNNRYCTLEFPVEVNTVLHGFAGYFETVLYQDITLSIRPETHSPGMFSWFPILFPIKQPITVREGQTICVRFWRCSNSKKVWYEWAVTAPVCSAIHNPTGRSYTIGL

SMILES: CNCCN(C)Cc1sc(-c2ccc(N3CCOCC3)cc2)nc1-c1ccc(OC)cc1
- inhibition [1]: 56%
- IC50 [2]: 7.07 µM
- inhibition [3]: 6%
- IC50 (A549): 33.9 µM
- IC50 (MDA-MB-231): 31.4 µM
- IC50 (HepG2): 20 µM
- IC50 (HeLa [4]): 19.4 µM

SMILES: CNCCN(C)Cc1sc(-c2cccc(OC)c2)nc1-c1ccc(OC)cc1
- inhibition [1]: 43%

SMILES: CNCCN(C)Cc1sc(-c2cccc(OC(F)(F)F)c2)nc1-c1cccc(OC)c1
- inhibition [1]: 31%

SMILES: CNCCNCc1sc(-c2ccc(OC)cc2)nc1-c1ccc(OC)cc1
- inhibition [1]: 7%

SMILES: CNCCN(C)Cc1sc(-c2ccc(OC(F)(F)F)cc2)nc1-c1ccc(OC)cc1
- inhibition [1]: 39%

SMILES: CNCCN(C)Cc1sc(-c2ccc(OC)cc2)nc1-c1ccc(OC)cc1.Cl
- inhibition [1]: 60%
- IC50 [2]: 11.8 µM
- inhibition [3]: 2.52%
- IC50 (A549): 18.4 µM
- IC50 (MDA-MB-231): 16.9 µM
- IC50 (HepG2): 16 µM
- IC50 (HeLa [4]): 9.43 µM
- Activity (HeLa [5]): Dose-Dependent Effect
- Activity (HeLa [6]): Dose-Dependent Effect
- Activity (HeLa [7]): Dose-Dependent Effect
- Activity (HeLa [8]): Dose-Dependent Effect
- viability at 8 µM (HeLa [9]): 56.2%
- Activity (HeLa [10]): 35.9%
- Activity (HeLa [11]): 6.65%
- Activity (HeLa [12]): 1.33%
- viability at 16 µM (HeLa [13]): 29.3%
- Activity (HeLa [14]): 51.9%
- Activity (HeLa [15]): 17.5%
- Activity (HeLa [16]): 1.33%
- viability at 32 µM (HeLa [17]): 11.3%
- Activity (HeLa [18]): 64.8%
- Activity (HeLa [19]): 22.9%
- Activity (HeLa [20]): 0.97%
- inhibition (HeLa [21]): Dose-Dependent Effect
- inhibition (HeLa [22]): Dose-Dependent Effect
- Activity (HeLa [23]): Dose-Dependent Effect
- Activity (HeLa [24]): inactive
- Activity (HeLa [25]): inactive
- Activity (HeLa [26]): Active
- Activity (HeLa [27]): Dose-Dependent Effect
- Activity (HeLa [28]): Dose-Dependent Effect
- Activity (HeLa [29]): Active

SMILES: CNCCN(C)Cc1sc(-c2ccc(OC(F)(F)F)cc2)nc1-c1cccc(OC)c1
- inhibition [1]: 35%

SMILES: CNCCN(C)Cc1sc(-c2cccc(OC(F)(F)F)c2)nc1-c1ccc(OC)cc1
- inhibition [1]: 21%

SMILES: N=C(N)c1ccc(-c2ccc(-c3ccc(C(=N)N)cc3)o2)cc1
- inhibition [1]: 98.1%

SMILES: CNCCN(C)Cc1sc(-c2cccc(N3CCOCC3)c2)nc1-c1ccc(OC)cc1
- inhibition [1]: 30%
